Data as given in paper PMC3989846 (Malaria Journal, 2014).
Like-named read-outs stand apart in the source and are kept apart here.

Assay: Plasma pharmacokinetics after single intravenous or intragastric dose
Format: in vivo, male ICR mice
Conditions: for Cmax / AUC / AUC(0-t) / MRT / Tmax / bioavailability / clearance / Vd / half-life: ICR, mouse; for AUC: read-out: AUCinfininty; for bioavailability: intragastric 20 mg/kg vs intravenous 5 mg/kg, read-out: Absolute bioavailability; for Vd: read-out: Vz; for half-life: read-out: t1/2 elimination (converted)
Experimental: PK studies were performed using both intravenous (IV) and intragastric (IG) administration. For each time point to be acquired, three male ICR mice per time-point, aged seven weeks, were dosed at either PQ or TQ at 5 mg/kg (IV) or 20 mg/kg (IG). Drug vehicle for IV studies was 0.9% saline solution, and the formulated drugs were administered in a volume of 100 μL/20 g of body weight. For IG dosing, the drug vehicle was 0.5% HECT, administered at 100 μL/20 g. At each time point, plasma and liver samples were collected. Whole blood was collected by cardiac puncture. […] Following the separation of appropriate aliquots, plasma was obtained from the whole blood via centrifugation. All liquid and tissue samples were immediately preserved on dry ice and lately stored at -80°C until analytical work was performed.
Sample was prepared by adding twice the normal volume of acetonitrile containing indomethacin internal standard (IS). The samples were mixed for 1 minute, centrifugation for 5 minutes, and the supernatant was transferred to an autosampler injection vial prior to separation by LC/MS/MS. Standard curve and quality control (QC) samples were generated by spiking interference free mouse plasma samples with known amounts of PQ, TQ and IS. Standard curve, QC, and assay samples were prepared and then 40 μL aliquots were injected into the LC/MS/MS system for chromatographic separation and subsequent mass spectrometric detection.
Chromatography was performed using a Surveyor pump (Thermo Scientific, Waltham, MA) with Waters XTerra MS C18 50 mm × 2.1 mm id, 3.5 μm particle size columns (Waters Corp., Milford, MA). Mobile phase consisted of a water/0.1% formic acid (Solvent A)/acetonitrile/0.1% formic acid (Solvent B) gradient. […] Flow rate was 300 μL/min. Samples were injected using an HTC PAL autosampler (LEAP Technologies, Carrboro, NC). Tandem mass spectrometry was performed using a TSQ Quantum AM (Thermo Scientific).
Drug concentrations were generated for each sample taken from animals dosed with both test drugs. A measured plasma and liver drug concentration vs. time curve was produced, in graphic and tabular form, for each subject on both linear/linear and log/linear scales, for the parent compound. Mean plasma drug concentration vs. time curves were also prepared separately. For the determination of initial approach to PK parameters of TQ and PQ in plasma and liver tissues after systemic application, a non-compartmental analysis was performed using Phoenix (version 6.1; Pharsight Corp., Mountain View, CA). Maximum plasma and liver concentration (Cmax), and time to maximum concentration (tmax) of TQ and PQ were obtained from the plasma and liver drug concentration-time curves. The elimination half-life (t1/2) was calculated from In2/kel, which is the elimination rate constant calculated from the log concentration-time plot. The area under the curve (AUC) and the area under the first moment curve (AUMC) were determined by the linear trapezoidal rule with extrapolation to infinity based on the concentration of the last time point divided by the terminal rate constant. Mean clearance rate (CL) was determined by dividing the dose by the AUCinf for intravenous injection for plasma samples. Absolute bioavailability was calculated by taking the dose-corrected area under the curve (AUC) from non-intravenous dosing divided by the AUC derived from intravenous dosing. Mean residence time (MRT) was determined by dividing the area under the first moment curve (AUMC) by AUC. The volume of the central compartment (Vz) and volume of the tissue compartment (Vz/F) were calculated as the product of CL and MRT.

[1] = male, in vivo, po, intragastric 20 mg/kg, plasma
[2] = male, in vivo, intravenous 5 mg/kg, plasma
[3] = male, po, intragastric 20 mg/kg, plasma
[4] = male, intravenous 5 mg/kg, plasma

COc1cc(NC(C)CCCN)c2ncccc2c1 (centres unmarked) [Primaquine, primaquine]
Cmax (in vivo, intravenous 5 mg/kg, plasma, male mice): 1210 ± 210 ng/mL
Cl (intragastric 20 mg/kg, plasma): 965.7 ± 342 mL/min/kg
Vz (intragastric 20 mg/kg, plasma): 154.66 ± 61.83 L/kg
AUCinfininty (intravenous 5 mg/kg, plasma, 5 mg/kg): 1260 ± 140 ng·h/mL
AUC (male, in vivo, iv, 5 mg/kg, intravenous 5 mg/kg, plasma): 1200 ng·h/mL
AUC (male, in vivo, po, 20 mg/kg, intragastric 20 mg/kg, plasma): 1310 ± 410 ng·h/mL
AUC(0-t) [1]: 1260 ± 400 ng·h/mL
Cmax [1]: 530 ± 70 ng/mL
MRT [1]: 2.28 ± 0.1 h
Tmax (male, in vivo, po, intragastric 20 mg/kg, plasma, read-out: Tmax): 0.5 h
Tmax (male, in vivo, absorbed from the gastrointestinal tract, mice, read-out: time to peak plasma levels): ≤ 0.0833 h
bioavailability (male, in vivo, plasma): 28.3 ± 6.93%
AUC(0-t) [2]: 1200 ± 130 ng·h/mL
MRT [2]: 0.68 ± 0.02 h
clearance [2]: 69.8 mL/min/kg
Tmax (male, in vivo, intravenous 5 mg/kg, plasma, read-out: Tmax): 0.08 h
Vd [2]: 3.85 ± 0.71 L/kg

COc1cc(C)c2c(Oc3cccc(C(F)(F)F)c3)c(OC)cc(NC(C)CCCN)c2n1 (centres unmarked) [Tafenoquine, tafenoquine]
Cmax (intravenous 5 mg/kg, plasma, male mice): 660 ± 130 ng/mL
Cl (intragastric 20 mg/kg, plasma): 2.5 ± 0.5 mL/min/kg
Vz (intragastric 20 mg/kg, plasma): 10.60 ± 1.22 L/kg
bioavailability (male, oral, plasma): 101 ± 37.5%
AUC(0-t) [3]: 138000 ± 24400 ng·h/mL
Cmax [3]: 2040 ± 590 ng/mL
MRT [3]: 62.1 ± 2.3 h
AUC [3]: 139000 ± 24900 ng·h/mL
Tmax (male, po, intragastric 20 mg/kg, plasma, read-out: Tmax): 11.3 ± 5.37 h
half-life [3]: 50.9 ± 4.23 h
AUC(0-t) [4]: 29600 ± 6740 ng·h/mL
MRT [4]: 55.9 ± 3.86 h
clearance [4]: 2.83 mL/min/kg
AUC [4]: 30100 ± 6650 ng·h/mL
Tmax (male, intravenous 5 mg/kg, plasma, read-out: Tmax): 1.36 ± 1.11 h
Vd [4]: 16.8 ± 6.44 L/kg
half-life [4]: 66.3 ± 10.3 h
absolute bioavailability of oral TQ, fold greater than oral PQ (oral): 3.5 fold
clearance as % of the hepatic blood flow (oral CL 0.15 L/hours/kg): 3%
AUCinf of oral TQ, fold higher than oral PQ (oral, plasma): 94 fold
Cmax of oral TQ, fold higher than oral PQ (oral, plasma): approximately 4 fold
elimination clearance of oral TQ, fold slower than oral PQ (oral, plasma): 370 fold
absorption rate of oral TQ, fold slower than PQ (oral, plasma, mice): 22.7 fold
duration of quantifiable concentrations (single 20 mg/kg dose): more than two weeks
